These results are taken from article PMC6357742, “Porphyromonas gingivalis in Alzheimer’s disease brains: Evidence for disease causation and treatment with small-molecule inhibitors” (Science Advances, 2019).

Data set [1] relates to P. gingivalis. Format: cell-based.
Data set [2] deals with SH-SY5Y cells infected with P. gingivalis W83. As to the kind of experiment: AlamarBlue viability of SH-SY5Y cells challenged with P. gingivalis. The data set is classed as cell-based, human. As to conditions: W83 strain, MOI of 400, 48 hours. For orientation: Alamar Blue is a resazurin reagent that responds to reducing activity.
The subject of data set [3] is differentiated SH-SY5Y cells exposed to RgpB and Kgp. As to the kind of experiment: Gingipain-induced aggregation of differentiated SH-SY5Y cells. The data set is classed as cell-based, human. As to conditions: pretreatment of gingipains; RgpB and Kgp 10 μg/ml, 24 hours.
Data set [4] deals with FXa (Homo sapiens, UniProt P00742). As to the kind of experiment: Cellular protease profiling. Format: biochemical.
The subject of data set [5] is calpain. As to the kind of experiment: Cellular protease profiling. The data set is classed as biochemical.
The target in data set [6] is DPP4 (Homo sapiens, UniProt P27487). As to the kind of experiment: Cellular protease profiling. The data set is classed as biochemical.
Data set [7] deals with Kgp (Porphyromonas gingivalis, UniProt Q51817). The data set is classed as binding, P. gingivalis.
Data set [8] concerns the target T1, Kgp (Porphyromonas gingivalis, UniProt B2RLK2). Format: binding, P. gingivalis. To be noted: human oral subgingival plaque, preincubation with COR388.
The target of data set [9] is BACE1 (Homo sapiens, UniProt P56817). As to the kind of experiment: Cellular protease profiling. The data set is classed as biochemical.
In data set [10] the target is cathepsin S (Homo sapiens, UniProt P25774). As to the kind of experiment: Cellular protease profiling. The data set is classed as biochemical.
For data set [11], the target named is plasmin (Homo sapiens, UniProt P00747). As to the kind of experiment: Cellular protease profiling. Format: biochemical.
Data set [12] deals with caspase family enzymes. As to the kind of experiment: Cellular protease profiling. Format: biochemical.
The target of data set [13] is T2, FVIIa (Homo sapiens, UniProt P08709).
T2 sequence (P08709 213-466 limits assumed): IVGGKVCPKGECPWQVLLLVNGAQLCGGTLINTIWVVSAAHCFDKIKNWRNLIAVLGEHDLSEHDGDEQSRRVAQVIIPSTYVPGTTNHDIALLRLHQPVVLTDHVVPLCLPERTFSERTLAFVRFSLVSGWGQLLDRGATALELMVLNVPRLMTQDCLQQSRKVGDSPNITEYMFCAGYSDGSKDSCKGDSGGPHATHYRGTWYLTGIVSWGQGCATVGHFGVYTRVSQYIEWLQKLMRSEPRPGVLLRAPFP
T2 sequence (P08709 61-212 partner limits assumed): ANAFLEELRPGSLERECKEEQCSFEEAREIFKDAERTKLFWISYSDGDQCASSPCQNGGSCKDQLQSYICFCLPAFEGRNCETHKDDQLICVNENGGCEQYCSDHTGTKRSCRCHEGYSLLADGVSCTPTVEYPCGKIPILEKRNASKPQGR
As to the kind of experiment: Cellular protease profiling. Format: biochemical.

The test system of data set [14] is P. gingivalis W83. As to the kind of experiment: P. gingivalis oral infection in mice, Experiment 3 (brain qPCR, Aβ1–42 and TNFα ELISA). As to conditions: days 36 to 70. Format: in vivo, BALB/c mice.
For data set [15], the target named is thrombin (Homo sapiens, UniProt P00734). As to the kind of experiment: Cellular protease profiling. Format: biochemical.
Data set [16] addresses T1, Kgp. The data set is classed as biochemical, P. gingivalis. To be noted: recovery of enzyme activity following dilution of enzyme/inhibitor complexes.
Data set [17] has as its target tryptase. As to the kind of experiment: Cellular protease profiling. Format: biochemical.
Data set [18] has as its system deubiquitinating peptidases. As to the kind of experiment: Cellular protease profiling. Format: biochemical.
Data set [19] is described as follows: Oral pharmacokinetic properties and CNS penetration. As to conditions: in vivo.
Data set [20] relates to P. gingivalis. As to the kind of experiment: Kgp-dependent growth of P. gingivalis in defined medium. As to conditions: 500 nM, over 43 hours. Format: cell-based.
Data set [21] concerns proteasome. As to the kind of experiment: Cellular protease profiling. The data set is classed as biochemical.
Data set [22] concerns P. gingivalis. As to the kind of experiment: Antimicrobial effects of Aβ on P. gingivalis (LIVE/DEAD BacLight). The data set is classed as cell-based. The arrangement: dose or concentration left out as unconfirmed. As to conditions: 37°C, anaerobic, 24 hours.
Setting [23] is: 10 and 30 mg/kg oral twice daily.

Some results are limits rather than exact numbers.

On to `COc1c(N2C[C@@H]3CCCN[C@@H]3C2)c(F)cc2c(=O)c(C(=O)O)cn(C3CC3)c12` [moxifloxacin], for which the “development of resistance on repeat passaging” value in data set [1] was “complete resistance”. The “increase of minimum inhibitory concentration (MIC) on passaging” value in data set [1] (12 passages) is on record as “over 1000 fold”. In [2], the “protection against P. gingivalis–induced cell death” value is “did not protect the cells”.
Regarding `NC(=O)CI` [iodoacetamide], in [3], the gingipain-induced cell aggregation entry was “prevented gingipain-induced aggregation”.
One may read the IC50 as the concentration needed to halve the response being measured. For `NCCCC[C@H](NC(=O)C1CCCC1)C(=O)COc1c(F)ccc(F)c1F` [COR388], the IC50 in data set [4], in data set [5], in data set [6], in data set [9], in [10] and in [11] was more than 10 µM throughout. Besides, the half-inhibitory concentration (IC50) in data set [12], in data set [13], in [15], in data set [17], in data set [18] and in data set [21] was more than 10 µM in each case. Also, the “development of resistance on repeat passaging” value in [1] is “did not develop”. In addition, the “Kgp target engagement (COR553 probe binding after preincubation)” value in data set [7] was “block of COR553 activity probe binding”. The “Kgp target engagement ex vivo (COR553 probe binding after preincubation)” value in data set [8] is recorded as “blocked probe binding to the active site”. The “Aβ1–42 level in brain tissue” value in data set [14] (3 mg/kg oral twice daily) is reported as “did not reduce”. In [14] (3 mg/kg oral twice daily), the “P. gingivalis load in brain tissue” value is listed as “some reduction”. Also, the “TNFα level in brain tissue” value in [14] (3 mg/kg oral twice daily) is “did not reduce”. Further, in data set [14] (setting [23]), the “Aβ1–42 level in brain tissue compared to infected vehicle” value was “reduced”. Besides, the “P. gingivalis load in brain tissue compared to infected vehicle” value in [14] (setting [23]) is listed as “reduced”. Besides, in data set [14] (setting [23]), the “TNFα level in brain tissue compared to infected vehicle” value is “reduced”. The mode of inhibition entry in data set [16] is on record as “irreversible binding kinetics”. In data set [19], the CNS penetration result is recorded as “significant CNS penetration”. Moreover, in data set [19] (po), the “oral bioavailability / oral pharmacokinetics” value is “superior oral pharmacokinetic”. Besides, in [20], the “growth of P. gingivalis in defined growth medium” value is recorded as “inhibited the growth”.
For `CC(C)[C@H](O)C(=O)N[C@@H](C)C(=O)N[C@@H]1C(=O)N(C)CCc2ccccc21` [semagacestat], the “protection against P. gingivalis–induced cell death” value in [2] was “no protective effect”.
With “Aβ1–42: Recombinant Aβ (1-42) Ultra-Pure, Ammonium Hydroxide (rProtein)”, in data set [22], the “viability of P. gingivalis” value is listed as “decreased viability”.
On to `C[C@H]1c2cccc(O)c2C(=O)C2=C(O)[C@]3(O)C(=O)C(C(N)=O)=C(O)[C@@H](N(C)C)[C@@H]3[C@@H](O)[C@@H]21` [doxycycline], for which the “protection against P. gingivalis–induced cell death” value in data set [2] was “did not protect the cells”.
